Patent publication US20090082470A1, “STAT3 INHIBITING COMPOSITIONS AND METHODS” (priority 2007, published 2009)

Legend:
[1] = test system: PC3 prostate cancer cell line; test: Anti-proliferative activity, MTS assay, PC3; assay type: cell-based; details: MTS assay, 2,000 cells/well, means of 2 experiments in triplicate
From the text: (§1) MCF-7 breast cancer cells, a cell line with no constitutive activation of STAT3, were used as negative control. […] In addition, the anti-proliferative activities are directly proportional to the level of constitutively active STAT3 expression (Table 1).

STAT3 [2] = test: STAT3 dimerization, co-immunoprecipitation of STAT3-FLAG and STAT3-HA; assay type: cell-based; details: MDA-MB-435s cells, 20 μM, 24h
Procedure: MDA-MB-435s cells were co-transfected with pCMV-STAT3-FLAG and pCMV-STAT3-HA plasmid constructs and immunoblot analyses were performed with anti-FLAG, anti-HA, and anti-STAT3, the results of which are shown in FIG. 5A. The cell lysates were then subjected to immunoprecipitation with an anti-FLAG or anti-HA antibody and immunoblot analyses were performed with anti-HA or anti-FLAG, respectively, the results of which are shown in FIG. 5B.
According to embodiments of experimental results shown in FIG. 5A, MDA-MB-435s cells were transfected with pCMV-STAT3-Flag and pCMV-STAT3-HA plasmid and the cell lysate was immunoblotted with anti-Flag, anti-HA, or anti-STAT3. According to embodiments shown in FIG. 5B, MDA-MB-435s cells were co-transfected with pCMV-STAT3-Flag and pCMV-STAT3-HA plasmids and were exposed to 20 μM of inhibitor for 24h, then cell lysate was immunoprecipitated with anti-HA or anti-Flag antibody, respectively and immunoblotted with HA, Flag, or STAT3 antibody. As shown in Lane 1 of FIG. 5B, no transfection was performed. In lane 2, untreated cells were transfected with pCMV-STAT3-Flag and pCMV-STAT3-HA plasmids.

SV40 promoter = test: SV40 luciferase reporter (STAT3-independent); assay type: cell-based; details: 20 μM, 48h
From the text: (§2) To screen the potential inhibitors that inhibit STAT3 's biological activity, we established Caov-3 cancer cell line that constitutively expresses active STAT3 with a stably integrated STAT3-dependent luciferase reporter construct, pLucTKS3. This construct contains multimerized STAT3 binding sites and its activation specifically depends on STAT3. We examined the effect of eight theoretical STAT3 inhibitors to inhibit STAT3-mediated production of luciferase.
(§3) According to embodiments illustrated by FIG. 3B, the clones stably transfected with pLucTKS3 STAT3-dependent luciferase reporter or SV40 luciferase reporter were treated with 20 μM of the STAT3 inhibitor for 48h and luciferase activity was measured.

STAT1 = target: T1, STAT1 (Homo sapiens, UniProt P42224); test: Electrophoretic mobility shift assay, STAT1 DNA binding; assay type: biochemical; details: 30 μM, MDA-MB-435s cell nuclear extract
T1 construct: endogenous in cells; host or cells: MDA-MB-435s nuclear extract
T1 sequence (P42224 1-750): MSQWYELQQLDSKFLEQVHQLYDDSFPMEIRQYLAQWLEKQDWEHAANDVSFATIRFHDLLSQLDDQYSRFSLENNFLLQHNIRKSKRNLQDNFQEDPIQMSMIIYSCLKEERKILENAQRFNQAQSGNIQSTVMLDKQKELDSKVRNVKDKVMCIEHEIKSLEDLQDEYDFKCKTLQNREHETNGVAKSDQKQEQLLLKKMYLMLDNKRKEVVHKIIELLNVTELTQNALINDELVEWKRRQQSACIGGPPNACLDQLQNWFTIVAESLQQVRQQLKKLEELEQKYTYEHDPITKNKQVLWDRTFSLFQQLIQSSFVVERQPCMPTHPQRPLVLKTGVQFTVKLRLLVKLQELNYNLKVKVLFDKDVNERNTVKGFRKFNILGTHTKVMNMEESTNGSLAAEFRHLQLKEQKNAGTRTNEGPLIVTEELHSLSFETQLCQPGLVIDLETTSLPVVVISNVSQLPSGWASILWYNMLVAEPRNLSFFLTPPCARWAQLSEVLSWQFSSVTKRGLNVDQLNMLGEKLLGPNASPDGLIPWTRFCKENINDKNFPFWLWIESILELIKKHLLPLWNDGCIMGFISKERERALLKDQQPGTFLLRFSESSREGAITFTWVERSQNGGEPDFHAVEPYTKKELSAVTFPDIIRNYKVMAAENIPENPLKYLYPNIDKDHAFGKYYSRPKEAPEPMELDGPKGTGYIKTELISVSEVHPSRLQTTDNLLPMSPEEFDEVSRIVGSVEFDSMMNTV
From the text: (§4) The reaction mixtures were resolved on 8% polyacylamide gel and visualized with autoradiography.

ERK½ = test: Phosphorylation of ERK½; assay type: cell-based
[3] = test system: MDA-MB-468, MDA-MB-435s, and MDA-MB-231 cell lines; test: Apoptosis by FACS, cell lines with constitutively active STAT3; assay type: cell-based; details: 48 h
Procedure: (§5) According to embodiments of experimental data shown in FIG. 6A, the phosphorylation of STAT3 (Tyr705) in different cell lines: lane 1 with HSF, lane 2 with MCF-7, land 3 with MDA-MB-453, lane 4 with MDA-MB-231, lane 5 with MDA-MB-435s, and lane 6 with MDA-MB-468. According to embodiments shown in FIG. 6B, cell lines were treated with STAT3 inhibitor at concentrations as indicated for 48 h, and apoptotic cells were detected with FACS.

cyclin D1 and Bcl-XL = test: Immunoblot of STAT3-regulated genes; assay type: cell-based; details: 20 μM and 30 μM
Src = target: T2, Src (Homo sapiens, UniProt P12931); test: Phosphorylation of Src; assay type: cell-based
T2 construct: endogenous in cells
T2 sequence (P12931 whole entry): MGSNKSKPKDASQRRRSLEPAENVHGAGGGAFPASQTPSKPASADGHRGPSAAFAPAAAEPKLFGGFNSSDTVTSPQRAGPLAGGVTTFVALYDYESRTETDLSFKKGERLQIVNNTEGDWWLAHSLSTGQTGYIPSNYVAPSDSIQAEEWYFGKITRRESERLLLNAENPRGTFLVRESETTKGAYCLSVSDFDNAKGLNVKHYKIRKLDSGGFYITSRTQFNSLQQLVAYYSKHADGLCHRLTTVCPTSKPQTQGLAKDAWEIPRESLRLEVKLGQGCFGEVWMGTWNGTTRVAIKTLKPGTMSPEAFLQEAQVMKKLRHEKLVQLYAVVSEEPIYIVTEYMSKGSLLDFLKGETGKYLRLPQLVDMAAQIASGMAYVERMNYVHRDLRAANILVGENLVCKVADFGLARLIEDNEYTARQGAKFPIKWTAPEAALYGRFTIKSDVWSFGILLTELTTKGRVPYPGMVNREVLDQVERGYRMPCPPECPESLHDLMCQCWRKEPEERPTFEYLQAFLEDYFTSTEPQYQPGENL

AKT = test: Phosphorylation of AKT; assay type: cell-based
STAT3 [4] = test: Electrophoretic mobility shift assay, STAT3 DNA binding; assay type: biochemical; details: 30 μM, 30 min, MDA-MB-435s cell nuclear extract
From the text: as §4

JAK2 = target: T3, JAK2 (Homo sapiens, UniProt O60674); test: Phosphorylation of JAK2; assay type: cell-based
T3 construct: endogenous in cells
T3 sequence (O60674 whole entry): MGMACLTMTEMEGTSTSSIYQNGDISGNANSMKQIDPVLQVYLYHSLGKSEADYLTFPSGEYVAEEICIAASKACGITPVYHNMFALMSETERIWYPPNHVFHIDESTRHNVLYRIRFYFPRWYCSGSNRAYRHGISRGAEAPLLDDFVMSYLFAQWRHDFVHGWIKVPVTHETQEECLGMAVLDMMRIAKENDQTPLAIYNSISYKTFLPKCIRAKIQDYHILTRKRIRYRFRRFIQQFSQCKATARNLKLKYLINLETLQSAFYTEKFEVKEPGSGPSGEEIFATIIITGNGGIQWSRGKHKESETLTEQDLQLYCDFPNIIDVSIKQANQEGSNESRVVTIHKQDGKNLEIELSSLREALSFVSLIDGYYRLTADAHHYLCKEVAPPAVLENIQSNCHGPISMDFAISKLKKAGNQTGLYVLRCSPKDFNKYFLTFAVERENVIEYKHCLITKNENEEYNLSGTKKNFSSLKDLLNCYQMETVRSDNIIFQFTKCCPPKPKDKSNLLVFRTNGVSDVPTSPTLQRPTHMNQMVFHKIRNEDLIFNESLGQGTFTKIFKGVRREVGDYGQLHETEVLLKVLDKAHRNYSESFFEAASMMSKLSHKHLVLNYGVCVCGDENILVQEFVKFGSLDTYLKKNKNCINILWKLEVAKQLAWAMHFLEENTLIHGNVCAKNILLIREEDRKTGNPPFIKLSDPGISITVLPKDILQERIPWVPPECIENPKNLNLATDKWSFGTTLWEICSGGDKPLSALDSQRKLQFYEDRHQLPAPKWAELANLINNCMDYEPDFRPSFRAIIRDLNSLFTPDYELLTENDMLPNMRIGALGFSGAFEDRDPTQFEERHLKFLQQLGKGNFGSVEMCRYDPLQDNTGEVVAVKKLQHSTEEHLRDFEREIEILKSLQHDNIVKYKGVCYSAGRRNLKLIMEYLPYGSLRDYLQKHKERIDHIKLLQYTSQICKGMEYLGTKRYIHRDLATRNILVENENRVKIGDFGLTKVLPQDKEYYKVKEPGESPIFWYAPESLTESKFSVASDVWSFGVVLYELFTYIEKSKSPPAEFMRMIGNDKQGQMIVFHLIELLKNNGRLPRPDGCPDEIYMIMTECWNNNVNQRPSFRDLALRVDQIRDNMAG

STAT5 = test: Electrophoretic mobility shift assay, STAT5 DNA binding; assay type: biochemical; details: 30 μM, MDA-MB-435s cell nuclear extract
From the text: as §4

[5] = test system: MCF-7 breast cancer cell line; test: Anti-proliferative activity, MTS assay, MCF-7; assay type: cell-based
From the text: as §1

STAT3 [6] = test: STAT3-dependent luciferase reporter (pLucTKS3) in Caov-3 cells; assay type: cell-based; details: 20 μM, 48h
From the text: as §2, §3

[7] = test system: LNCaP prostate cancer cell line; test: Anti-proliferative activity, MTS assay, LNCaP; assay type: cell-based; details: Homo sapiens, MTS assay, 2,000 cells/well, means of 2 experiments in triplicate
From the text: as §1

[8] = test system: DU 145 prostate cancer cell line; test: Anti-proliferative activity, MTS assay, DU 145; assay type: cell-based; details: Homo sapiens, MTS assay, 2,000 cells/well, means of 2 experiments in triplicate
From the text: as §1

[9] = test system: MCF-7 and MDA-MB-453 cancer cell lines and human skin fibroblasts (HSF); test: Apoptosis by FACS, cells lacking constitutively active STAT3; assay type: cell-based; details: 48 h, lack constitutively active STAT3
Procedure: as §5

C[C@@H]1CC(=O)c2c(ccc3c2C(=O)c2cccc(O)c2C3=O)C1 [STA-21, deoxytetrangomycin]
IC50 [1]: 18.7 µM
ability of STAT3-FLAG and STAT3-HA to dimerize (STAT3 [2]): significantly reduced
luciferase activity under control of the SV40 promoter (SV40 promoter): no significant difference
STAT1 DNA binding (STAT1): did not inhibit
phosphorylation of ERK½ (ERK½): did not inhibit
increase in percentage of apoptotic cells [3]: 5-30 fold
expression of STAT3-regulated genes cyclin D1 and Bcl-XL (cyclin D1 and Bcl-XL): inhibits the expression
phosphorylation of Src (Src): did not inhibit
phosphorylation of AKT (AKT): did not inhibit
STAT3 DNA binding activity (STAT3 [4]): specifically blocked STAT3 DNA binding
phosphorylation of JAK2 (JAK2): did not inhibit
STAT5 DNA binding (STAT5): did not inhibit
IC50 ([5]; Homo sapiens, MCF7, MTS assay, 2,000 cells/well, no constitutive STAT3 activation): > 100 µM
anti-proliferative activity in MCF-7 cells (in words) ([5]; cells with no constitutive STAT3 activation): did not show any antiproliferative activity
reduction in luciferase activity, pLucTKS3 transfected cells (STAT3 [6]): ~6 fold
IC50 [7]: 30.1 µM
IC50 [8]: 12.2 µM
increase in percentage of apoptotic cells [9]: 0.5-1.2 fold
